In patent publication US20260356856A1, “KRAS G12S AND G12C INHIBITORS” (MIRATI THERAPEUTICS, INC., priority 2023, published 2026):

Assays:
KRas G12C = target: T1, KRas G12C (Homo sapiens, UniProt P01116, G12C); test: KRas binding assay, TR-FRET displacement of Cy5 labelled tracer; details: 60-minute incubation at room temperature, 1% DMSO, pH 7.5
T1 construct: Biotinylated KRas (corresponding to amino acids 1-169, produced at Accelegan Inc.); biotin (biotinylated); purchased Accelegan Inc
Summary of the method: (§1)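 Tb-streptavidin captured biotinylated KRas (1-169) in HEPES 50 mM, DTT 1 mM, MgCl2 5 mM, Tween-20 0.005% (pH 7.5), alongside tracer and compound at 1% final DMSO. One hour at RT, then read; IC50 from 4-parameter POC fit.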

KRas G12S = target: T2, KRas G12S (Homo sapiens, UniProt P01116, G12S); test: as above; details: 60-minute incubation at room temperature, 1% DMSO, pH 7.5
T2 construct: Biotinylated KRas (corresponding to amino acids 1-169, produced at Accelegan Inc.); biotin (biotinylated); purchased Accelegan Inc
T2 sequence (P01116 1-169 isoform P01116-2 G12S): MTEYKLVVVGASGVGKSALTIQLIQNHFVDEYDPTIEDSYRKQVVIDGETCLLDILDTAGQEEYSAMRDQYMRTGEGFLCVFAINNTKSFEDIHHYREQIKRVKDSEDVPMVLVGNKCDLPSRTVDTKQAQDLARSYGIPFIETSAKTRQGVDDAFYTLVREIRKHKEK
Summary of the method: as §1

KRas WT = target: T3, KRas WT (Homo sapiens, UniProt P01116); test: as above; details: 60-minute incubation at room temperature, 1% DMSO, pH 7.5
T3 construct: Biotinylated KRas (corresponding to amino acids 1-169, produced at Accelegan Inc.); biotin (biotinylated); purchased Accelegan Inc
T3 sequence (P01116 1-169 isoform P01116-2): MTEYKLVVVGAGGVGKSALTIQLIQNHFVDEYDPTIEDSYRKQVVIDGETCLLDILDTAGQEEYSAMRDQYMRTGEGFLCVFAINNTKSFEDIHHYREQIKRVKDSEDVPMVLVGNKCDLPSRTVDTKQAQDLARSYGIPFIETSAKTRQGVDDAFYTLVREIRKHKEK
Summary of the method: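 Compound competes with tracer for biotin-labelled KRas (amino acids 1-169) bound to terbium-streptavidin. Incubation runs 60 minutes at room temperature, final DMSO 1%. IC50 values derive from a 4-parameter fit.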

[1] = target: T4, KRas-mediated phosphorylation of ERK in MKN1 cells (Homo sapiens, UniProt P01116); test: Inhibition of KRas-mediated phosphorylation of ERK (HTRF), MKN1 cells; format: cell-based; details: MKN1 cells (KRas WT); HTRF pERK; 3 h incubation
T4 construct: pERK HTRF read-out
T4 sequence (P01116 1-188 isoform P01116-2): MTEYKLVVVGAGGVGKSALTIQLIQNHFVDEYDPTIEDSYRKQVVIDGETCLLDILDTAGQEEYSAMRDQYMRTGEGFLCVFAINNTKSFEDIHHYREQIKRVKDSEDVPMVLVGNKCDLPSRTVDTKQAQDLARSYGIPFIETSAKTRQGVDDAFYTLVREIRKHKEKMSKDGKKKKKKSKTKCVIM
Protocol: Inhibition of KRas Phosphorylation of ERK (HTRF) by Exemplary Compounds of Formula (Ia) or (Ib)
Cisbio HTRF Advanced pERK Assay Catalog #64AERPEH • Cells: MKN1, PSN1 • Procedure: • 1. Day 1: Seed 6,000 cells/well −25 μl/well in 384-well white solid bottom plate; RPM1_10% FBS. Incubate overnight at 37 °C/5% CO2. • 2.

[2] = target: T5, KRas-mediated phosphorylation of ERK in A549 cells (Homo sapiens, UniProt P01116, G12S); test: Inhibition of KRas-mediated phosphorylation of ERK (HTRF), A549 cells; format: cell-based; details: HTRF pERK, 3 h incubation
T5 construct: pERK HTRF read-out
T5 sequence (P01116 1-188 isoform P01116-2 G12S): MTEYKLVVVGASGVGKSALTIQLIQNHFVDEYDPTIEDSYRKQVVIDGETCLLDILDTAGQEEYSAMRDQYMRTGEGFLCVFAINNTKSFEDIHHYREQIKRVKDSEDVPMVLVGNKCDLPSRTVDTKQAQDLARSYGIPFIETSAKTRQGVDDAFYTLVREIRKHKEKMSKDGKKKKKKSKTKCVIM

[3] = target: T6, KRas-mediated phosphorylation of ERK in H358 cells (Homo sapiens, UniProt P01116, G12C); test: Inhibition of KRas-mediated phosphorylation of ERK (HTRF), H358 cells; format: cell-based; details: HTRF pERK, 3 h incubation
T6 construct: pERK HTRF read-out
T6 sequence (P01116 1-188 isoform P01116-2 G12C): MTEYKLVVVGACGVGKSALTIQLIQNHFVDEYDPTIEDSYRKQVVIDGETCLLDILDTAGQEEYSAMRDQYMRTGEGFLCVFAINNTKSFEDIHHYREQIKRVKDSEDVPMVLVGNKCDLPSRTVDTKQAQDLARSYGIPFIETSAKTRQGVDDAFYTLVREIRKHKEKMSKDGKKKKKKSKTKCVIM

T1 sequence (P01116 1-169 isoform P01116-2 G12C): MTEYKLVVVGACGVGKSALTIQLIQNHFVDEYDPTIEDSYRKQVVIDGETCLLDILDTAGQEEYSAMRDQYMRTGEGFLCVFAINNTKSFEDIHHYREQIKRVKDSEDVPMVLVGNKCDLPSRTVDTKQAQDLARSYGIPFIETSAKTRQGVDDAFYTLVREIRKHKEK

| IC50 (KRas G12C) [nM] | IC50 (KRas G12S) [nM] | IC50 (KRas WT) [nM] | IC50 [1] [nM] | IC50 [2] [nM] | IC50 [3] [nM] | Compound |
| --- | --- | --- | --- | --- | --- | --- |
| 11 | 11 | 5 | 27 | 367 | 163 | N#Cc1c(N)sc2c(F)ccc(-c3c(Cl)cc4c(N5CCC(C(=O)N6CCOCC6)CC5)nc(OC[C@@]56CCCN5C[C@H](F)C6)nc4c3F)c12 [Example 241, 2-amino-4-(6-chloro-8-fluoro-2-(((2R,7aS)-2-fluorotetrahydro-1H-pyrrolizin-7a(5H)-yl)methoxy)-4-(4-(morpholine-4-carbonyl)piperidin-1-yl)quinazolin-7-yl)-7-fluorobenzo [b]thiophene-3-carbonitrile] |
| 14 | 12 | 8 | 17 | 240 | 149 | CON(C)C(=O)C1CCN(c2nc(OC[C@@]34CCCN3C[C@H](F)C4)nc3c(F)c(-c4ccc(F)c5sc(N)c(C#N)c45)c(Cl)cc23)CC1 [Example 242, 1-(7-(2-amino-3-cyano-7-fluorobenzo[b]thiophen-4-yl)-6-chloro-8-fluoro-2-(((2R,7aS)-2-fluorotetrahydro-1H-pyrrolizin-7a(5H)-yl)methoxy)quinazolin-4-yl)-N-methoxy-N-methylpiperidine-4-carboxamide] |
| 12 | 8 | 6 | 15 | 148 | 148 | Cn1ccc(COC(=O)C2CCN(c3nc(OC[C@@]45CCCN4C[C@H](F)C5)nc4c(F)c(-c5ccc(F)c6sc(N)c(C#N)c56)c(Cl)cc34)CC2)n1 [Example 245, (1-methyl-1H-pyrazol-3-yl)methyl 1-(7-(2-amino-3-cyano-7-fluorobenzo[b]thiophen-4-yl)-6-chloro-8-fluoro-2-(((2R,7aS)-2-fluorotetrahydro-1H-pyrrolizin-7a(5H)-yl)methoxy)quinazolin-4-yl)piperidine-4-carboxylate] |
| 13 | 14 | 8 | 24 | 223 | 167 | N#Cc1c(N)sc2c(F)ccc(-c3c(Cl)cc4c(N5CCC(C(=O)N6CCCC6)CC5)nc(OC[C@@]56CCCN5C[C@H](F)C6)nc4c3F)c12 [Example 246, 2-amino-4-(6-chloro-8-fluoro-2-(((2R,7aS)-2-fluorotetrahydro-1H-pyrrolizin-7a(5H)-yl)methoxy)-4-(4-(pyrrolidine-1-carbonyl)piperidin-1-yl)quinazolin-7-yl)-7-fluorobenzo [b]thiophene-3-carbonitrile] |
| 360 | 57 | 669 | 2920 | 100 | 4220 | Cc1ccn(C(=O)C2CCCN(c3nc(OC[C@@]45CCCN4C[C@H](F)C5)nc4c(F)c(-c5c(C#N)c(N)cc(C)c5C(F)(F)F)c(Cl)cc34)CC2)n1 (stereo partly drawn) [Example 248, 6-amino-2-(6-chloro-8-fluoro-2-(((2R,7aS)-2-fluorotetrahydro-1H-pyrrolizin-7a(5H)-yl)methoxy)-4-(4-(3-methyl-1H-pyrazole-1-carbonyl)azepan-1-yl)quinazolin-7-yl)-4-methyl-3-(trifluoromethyl)benzonitrile] |

The remaining lines, values behind:

| Compound | IC50 (KRas G12C) [nM] | IC50 (KRas G12S) [nM] | IC50 (KRas WT) [nM] | IC50 [1] [nM] | IC50 [2] [nM] | IC50 [3] [nM] |
| --- | --- | --- | --- | --- | --- | --- |
| CN(C)C(=O)N(C)C(=O)CCCN(C)c1nc(OC[C@@]23CCCN2C[C@H](F)C3)nc2c(F)c(-c3ccc(F)c4sc(N)c(C#N)c34)c(Cl)cc12 [Example 239, 4-((7-(2-amino-3-cyano-7-fluorobenzo[b]thiophen-4-yl)-6-chloro-8-fluoro-2-(((2R,7aS)-2-fluorotetrahydro-1H-pyrrolizin-7a(5H)-yl)methoxy)quinazolin-4-yl)(methyl)amino)-N-(dimethylcarbamoyl)-N-methylbutanamide] | 6 | 8 | 11 | 171 | 669 | 114 |
| COCC(C)OC(=O)C1CCN(c2nc(OC[C@@]34CCCN3C[C@H](F)C4)nc3c(F)c(-c4ccc(F)c5sc(N)c(C#N)c45)c(Cl)cc23)CC1 (stereo partly drawn) [Example 240, 1-methoxypropan-2-yl 1-(7-(2-amino-3-cyano-7-fluorobenzo[b]thiophen-4-yl)-6-chloro-8-fluoro-2-(((2R,7aS)-2-fluorotetrahydro-1H-pyrrolizin-7a(5H)-yl)methoxy)quinazolin-4-yl)piperidine-4-carboxylate] | 66 | 62 | 16 | 44 | 775 | 658 |
| Cc1ccccc1OC(=O)C1CCN(c2nc(OC[C@@]34CCCN3C[C@H](F)C4)nc3c(F)c(-c4ccc(F)c5sc(N)c(C#N)c45)c(Cl)cc23)CC1 [Example 243, o-tolyl 1-(7-(2-amino-3-cyano-7-fluorobenzo[b]thiophen-4-yl)-6-chloro-8-fluoro-2-(((2R,7aS)-2-fluorotetrahydro-1H-pyrrolizin-7a(5H)-yl)methoxy)quinazolin-4-yl)piperidine-4-carboxylate] | 19 | 127 | 330 | 736 | 215 | 26 |
| COc1cccc(OC(=O)C2CCN(c3nc(OC[C@@]45CCCN4C[C@H](F)C5)nc4c(F)c(-c5ccc(F)c6sc(N)c(C#N)c56)c(Cl)cc34)CC2)c1 [Example 244, 3-methoxyphenyl 1-(7-(2-amino-3-cyano-7-fluorobenzo[b]thiophen-4-yl)-6-chloro-8-fluoro-2-(((2R,7aS)-2-fluorotetrahydro-1H-pyrrolizin-7a(5H)-yl)methoxy)quinazolin-4-yl)piperidine-4-carboxylate] | 9 | 23 | 289 | 279 | 55 | 12 |
| N#Cc1c(N)sc2c(F)ccc(-c3c(Cl)cc4c(N5CCC(C(=O)N6C7CCC6COC7)CC5)nc(OC[C@@]56CCCN5C[C@H](F)C6)nc4c3F)c12 [Example 247, 4-(4-(4-(3-oxa-8-azabicyclo[3.2.1]octane-8-carbonyl)piperidin-1-yl)-6-chloro-8-fluoro-2-(((2R,7aS)-2-fluorotetrahydro-1H-pyrrolizin-7a(5H)-yl)methoxy)quinazolin-7-yl)-2-amino-7-fluorobenzo[b]thiophene-3-carbonitrile] | 21 | 24 | 12 | 61 | 677 | 296 |
| CN(CCNC(=O)n1ccnn1)c1nc(OC[C@@]23CCCN2C[C@H](F)C3)nc2c(F)c(-c3ccc(F)c4sc(N)c(C#N)c34)c(Cl)cc12 [Example 249, N-(2-((7-(2-amino-3-cyano-7-fluorobenzo[b]thiophen-4-yl)-6-chloro-8-fluoro-2-(((2R,7aS)-2-fluorotetrahydro-1H-pyrrolizin-7a(5H)-yl)methoxy)quinazolin-4-yl)(methyl)amino)ethyl)-1H-1,2,3-triazole-1-carboxamide] | < 2 | 7 | 11 | 223 | 249 | 2 |
| CCc1c(F)ccc2cc(O)cc(-c3ncc4c(N(C)CCNC(=O)n5ccnn5)nc(OC[C@@]56CCCN5C[C@H](F)C6)nc4c3F)c12 [Example 250, N-(2-((7-(8-ethyl-7-fluoro-3-hydroxynaphthalen-1-yl)-8-fluoro-2-(((2R,7aS)-2-fluorotetrahydro-1H-pyrrolizin-7a(5H)-yl)methoxy)pyrido[4,3-d]pyrimidin-4-yl)(methyl)amino)ethyl)-1H-1,2,3-triazole-1-carboxamide] | < 2 | 34 | 37 | 357 | 1680 | 8 |
| CCc1c(F)ccc2cc(O)cc(-c3ncc4c(N(C)CCNC(=O)n5nccn5)nc(OC[C@@]56CCCN5C[C@H](F)C6)nc4c3F)c12 [Example 251, N-(2-((7-(8-ethyl-7-fluoro-3-hydroxynaphthalen-1-yl)-8-fluoro-2-(((2R,7aS)-2-fluorotetrahydro-1H-pyrrolizin-7a(5H)-yl)methoxy)pyrido[4,3-d]pyrimidin-4-yl)(methyl)amino)ethyl)-2H-1,2,3-triazole-2-carboxamide] | 21 | 65 | 70 | 1280 | 5440 | 66 |
| N#Cc1c(N)sc2c(F)ccc(-c3c(Cl)cc4c(N5CCN(S(=O)(=O)n6ccnn6)CC5)nc(OC[C@@]56CCCN5C[C@H](F)C6)nc4c3F)c12 [Example 252, 4-(4-(4-((1H-1,2,3-triazol-1-yl)sulfonyl)piperazin-1-yl)-6-chloro-8-fluoro-2-(((2R,7aS)-2-fluorotetrahydro-1H-pyrrolizin-7a(5H)-yl)methoxy)quinazolin-7-yl)-2-amino-7-fluorobenzo[b]thiophene-3-carbonitrile] | 48 | 77 | 39 | 156 | 806 | 391 |
